The results in this text go back to US10012659B2, “Methods for diagnosing iron-related pathologies” (priority 2014, dated 2018).

In experiment [1] the test system is fibrin fiber network of healthy platelet rich plasma (PRP). The following applies: PRP exposed to compound, then thrombin; SEM.
Method: SEM-Based Analyses. […] Blood was obtained from three healthy, female subjects after written, informed consent was obtained. […] Their plasma ferritin (range 2.6-3.3 g/L), serum ferritin (range 13-28 ng/ml) and iron saturation of ferritin (range 19-33%) were normal. As noted previously, forty ml of whole blood was obtained, anticoagulated (sodium citrate, 9 parts blood to 1 part 0.105M sodium citrate), and platelet rich plasma (PRP) was generated by centrifugation of blood at 1250×g for 2 min (Nielsen et al., Blood Coagul Fibrinolysis 25:695-702 (2014); Nielsen et al., Blood Coagul Fibrinolysis 25:845-50 (2014)). […]
The cover slips were placed in 0.075 M PBS on a shaker and washed for 20 minutes. […] Once the samples had been coated they were analyzed with a scanning electron microscope (Zeiss ULTRA plus FEG SEM, Carl Zeiss Microscopy GmbH, Jena, Germany).
After visualization of the fibrin networks with SEM, micrographs were obtained at 40,000 times machine magnification. […] One fiber was randomly selected out of every block of the grid, ensuring that fiber measurements were not duplicated, and that fibers were systematically assessed to prevent observer bias (Pretorius Ultrastruct Pathol 35(4):150-154 (2001); Pretorius et al., Blood Coagul Fibrinolysis 22(8):696-700 (2011)). […] From each sample, 50 fibers were measured.
Experiment [2] relates to normal pooled plasma. The experiment is described as follows: Effect of FeCl3 and deferoxamine chelation on reaction time (R), thrombelastograph. Format: biochemical, human. The following applies: FeCl3 10 μM; for reaction time: median (1st, 3rd quartile). The protocol:
Thrombelastograph-Based Analyses. All thrombelastograph-based experiments were performed at the University of Arizona. Frozen, citrate anticoagulated normal pooled plasma was obtained from a commercial vendor (George King Bio-Medical, Overland Park, Kans., USA) for use in subsequently described experimentation. […] Deferoxamine was obtained from a commercial vendor (Cayman Chemical Company, Ann Arbor, Mich., USA). […] Then, 336 μl of either plasma mixture was placed in a disposable cup in a computer-controlled thrombelastograph® hemostasis system (Model 5000, Haemoscope Corp., Niles, Ill., USA). […] Thus, there were four conditions: no deferoxamine, no FeCl3, (Control), deferoxamine, no FeCl3 (deferoxamine); no deferoxamine, FeCl3 (FeCl3); and finally, FeCl3 followed by deferoxamine (FeCl3+Deferoxamine). There were six replicates per condition. Thereafter, 20 μl of 200 mM CaCl2 was added as the last step to initiate clotting. Data were collected at 37° C. until R was recorded. […] There were six replicates per condition. An aliquot of 340 μl of each of the four conditions was placed into thrombelastographic cups and 20 μl of 200 mM CaCl2 was added to initiate clotting. Data were collected at 37° C. until R was recorded. As R values varied between experiments, and a fixed number of channels were available (n=4), plasma was incubated at room temperature between 45-60 min prior to initiation of coagulation. The third series of experiments was designed to decrease incubation time by increasing temperature and deferoxamine concentration without compromising the ability to detect iron-mediated changes in R values. […] The mixtures were mixed with the disposable pin, and allowed to incubate for 15 min at 37° C. Clotting was initiated by addition of 20 μl of 200 mM CaCl2 and data collected at 37° C. until R was recorded. A total of six replicates of the four experimental conditions were analyzed.

Experiment [3] concerns normal pooled plasma. The experiment is described as follows: Concentration-response of FeCl3 on reaction time (R), ROTEM delta thromboelastometry. Format: biochemical, human. The following applies: 2-10 μM FeCl3. The protocol: First, a concentration-response relationship of iron concentration and reaction time (R, defined as 2 mm clot strength; this is also known as clotting time in thromboelastometric analyses) was determined. The rationale for using R time was that it is the first indication of the onset of coagulation, is used in both thrombelastographic and thromboelastometric systems, and was anticipated to quickly and easily detect iron-mediated enhancement of coagulation based on previous work. This concentration-response relationship was generated with a ROTEM® delta hemostasis system (Tem Innovations GmbH, Munich, Germany) generously provided by the manufacturer. All disposable cups/pins and reagents were also provided by Tem Innovations. Plasma was rapidly thawed at 37° C. on the day of experimentation. […] After 3 min or more of incubation at room temperature, 320 μl of these iron-exposed plasmas were subsequently placed in a disposable cup, with subsequent addition of 20 μl of 200 mM CaCl2. The complete sample was mixed by pipette once, and the reaction commenced at 37° C. The R values were subsequently recorded.

For experiment [4], the system named is normal individual plasma. Briefly: Coagulation kinetic analyses and COHF assay (TTG increase after CORM-2). The following applies: CORM-2 100 μM; based on individual, not group mean responses. Format: biochemical, human. The protocol: Plasma was rapidly thawed at 37° C. on the day of experimentation. The final volume for all subsequently described plasma sample mixtures was 359.4 μl. […] Plasma sample mixtures were placed in a disposable cup in a computer-controlled thrombelastograph® hemostasis system (Model 5000, Haemoscope Corp., Niles, Ill., USA), with addition of CaCl2 as the last step to initiate clotting. Data were collected at 37° C. for 15 min. The following elastic modulus-based parameters previously described (Benk et al., Eur J Cardio-Thorac Surg 44:551-558 (2013); Owens Clin Biochem 43:1183-1188 (2010); Balla et al., Antioxid Redox Signal 9:2119-2137 (2007); Nielsen et al., Blood Coagul Fibrinolysis 20:377-380 (2009); Nielsen et al., Blood Coagul Fibrinolysis 22:443-447 (2011); Nielsen et al., Blood Coagul Fibrinolysis 22:756-759 (2011); Nielsen et al., Blood Coagul Fibrinolysis 24:405-410 (2013)) were determined: time to maximum rate of thrombus generation (TMRTG): this is the time interval (min) observed prior to maximum speed of clot growth; maximum rate of thrombus generation (MRTG): this is the maximum velocity of clot growth observed (dynes/cm^2/sec); and total thrombus generation (TTG, dynes/cm^2), the final viscoelastic resistance observed after clot formation. […]

Marks after values point to notes of the source that are not given here.

As for `[Cl][Fe]([Cl])[Cl]` [FeCl3, ferric chloride], in experiment [1], the “decrease in average fibrin fiber width vs normal subjects (105±3 nm)” value came to 58%. Moreover, the “FeCl3-mediated decrease in R values” in experiment [2] (45-60 minute incubation) came to 72%. For the same molecule, the “reduction in R values compared to control plasma values” in experiment [2] (3 min incubation series) worked out at 54%. Besides, the reaction time in experiment [2] (Fifteen min incubation at 37° C., deferoxamine 2.78 mM) is reported as 4.6 (4.4, 6.0)*† min; in experiment [2] (Forty-five to sixty min incubation at room temperature, deferoxamine 1 mM), 5.0 (4.9, 5.1)*† min; in experiment [2] (Three min incubation at room temperature, deferoxamine 1 mM), 5.9 (5.8, 6.4)*† min. For the same molecule, in experiment [3], the “R values vs plasma without FeCl3 addition” value was “significantly smaller”.

Regarding `[C-]#[O+].[C-]#[O+].[C-]#[O+].[C-]#[O+].[C-]#[O+].[C-]#[O+].[Cl][Ru][Cl].[Cl][Ru][Cl]` [CORM-2, tricarbonyldichlororuthenium (II) dimer], in experiment [4], the “normal individual increase in TTG secondary to CORM-2 exposure” value is reported as 89%. Besides, in experiment [1], the “decrease in average fibrin fiber width vs normal subjects (105±3 nm)” value came out at 43%.
